# Test results: patent US20120277161A1, “INHIBITION OF MULTIPLE CELL ACTIVATION PATHWAYS” (INTER-K PTY LIMITED, priority 2009, published 2012)
# “Also recorded” adds a separate entry of the source.
# Columns and labels:
# [1] = test system: HT29 human colon cancer cells; assay: Cell proliferation (MTT) assay, HT29 cells; assay type: cell-based; settings: MTT, 24 hour incubation period
# Experimental: 6.1 Cell Proliferation (MTT) Assay Single cell suspensions of viable trypsinised cells were seeded into 96-well tissue culture plates at a density of 2×10^3 cells per well in a volume of 100 μl of a suitable culture media supplemented with heat inactivated foetal calf serum (FCS) (e.g., Dulbecco's Modified Eagles Medium (DMEM), with 10% v/v FCS, 1% L-glutamine, 2% (v/v) Hepes, and antibiotics). A set of triplicate wells was prepared for each concentration of the peptide dendrimer being tested. Additional sample wells containing untreated cells or media alone were set up in each treatment plate and processed in parallel as reference controls. A zero-time plate of untreated cells and media-alone wells was simultaneously prepared and an MTT assay carried out on this plate at the time of addition of the kinase inhibitor (i.e., polypeptide or dendrimer) to treatment plates. All plates were cultured for 24 hours before addition of the test dendrimer.
# To prepare the MTT solution 100 mg of MTT (3-(4,5-dimethylthiazolyl-2)-2,5-diphenyltetrazolium bromide) (Cat #. M-128, Sigma, St Louis Mo.), is mixed with 20 ml of PBS at pH 7.4. The resulting solution is filter sterilized (0.2 μM syringe filter) and stored at 4° C. protected from light until use. MTT substrate is cleaved in growing cells to yield a water insoluble salt. After solubilisation of the salt crystals, a coloured product is produced the measurement of which allows quantitation of the proliferative activity of the cultured cells.
# Appropriate concentrations of the kinase inhibitor were prepared by dilution of freshly prepared sterile 1 mM stock solutions into cell culture media to give a final well volume of 200 μl containing 10% v/v FCS. The zero-plate was processed by addition of MTT at this time. Cell culture was continued for a further 24 or 48 hours before addition of 20 μl of MTT in PBS (5 mg/ml, 0.2 um filter sterilised). The MTT cell proliferation assay measures cell proliferation rate and, in instances where cell viability is compromised, the assay indicates a comparative reduction in cell viability. After a 3 hour incubation in the presence of MTT (5% CO2 in air at 37° C.), plates were centrifuged at 450 g for 5 minutes, supernatant was removed by gentle suction and precipitated tetrazolium salt resuspended into 150 μl DMSO:glycine (0.1M glycine, 0.1M NaCl pH 10.5) (6:1 v/v) solution. Plates were gently vortexed to complete solubilisation of crystalline material and absorbance was read at 550 nm using a microplate reader. Sample data were processed to determine the comparative growth of treated samples relative to untreated controls.
# HT29 cells were cultured for 48 hours in the presence of selected dendrimers and proliferation of the cells was assessed by MTT assay essentially as described in Example 6.1. The results were calculated as percentage proliferation of control cells (not treated with dendrimer).
# [2] = test system: ERK1/2 activation in HT29 cells; assay: Phospho-ERK1/2 ELISA upon serum (FCS) stimulation, HT29 cells; assay type: cell-based, human
# Experimental: HT29 cells were harvested using 0.5% trypsin EDTA (Invitrogen) and 5000 cells in 200 μL media were plated into each well of a clear NUNC tissue culture treated 96 well plate (NUNC). Cells were seeded in DMEM media (Invitrogen) supplemented with 10% (v/v) heat inactivated foetal calf serum (FCS, Invitrogen), 1% (v/v) L-glutamine (Invitrogen) and 2% (v/v) 1M Hepes buffer solution (Invitrogen). Cells were then incubated overnight at 37° C.
# The following day, the growth medium was replaced with 100 μL of DMEM supplemented with 1% (v/v) L-glutamine and 2% (v/v) 1M HEPES buffer solution (Invitrogen) (serum free medium, SFM) and plates incubated for a further 24 hours at 37° C.
# The dendrimers were re-constituted in SFM and the desired concentration was added to the plate in 100 μL SFM to make the total volume of each well 200 μL. The control wells (minus peptide) had only SFM added. The assay plate was then incubated at 37° C. for 4 hours. In studies in which cells were subjected to stimulation by serum, 22 μL FCS (10% v/v final concentration) was added to wells for the final 10 minutes at 37° C. SFM only (22 μL) was added to control wells.
# Phospho-ERK levels were evaluated by ELISA utilising an Active Motif FACE ERK1/2 ELISA kit (Australian Biosearch, WA, Australia) as per the manufacturers instructions. Briefly, media was replaced and cells fixed with 4% formaldehyde in PBS, and after a one hour incubation with antibody blocking buffer (supplied), the primary phospho-ERK antibody was added and the plate incubated overnight at 4° C. Antibody dilution buffer only was added to control test wells containing no primary antibody. The following day, HRP-conjugated secondary antibody was added to all wells for one hour before plates were developed and the absorbance measured at 450 nm using a Labsystems Multiskan EX microplate reader (Labsystems, Thermo Labsystems, UK).
# [3] = test system: ERK1/2 activity in skin fibroblast cells; assay: Phospho-ERK1/2 upon FCS stimulation, skin fibroblast cells; assay type: cell-based; settings: compared to HT29 cells, data not shown
structure (smiles),measurement,setting,value
CC(C)C[C@H](NC(=O)[C@@H]1CCCN1C(=O)[C@H](CC(N)=O)NC(=O)[C@H](CCCCN)NC(=O)[C@H](C)NC(=O)[C@H](CCCCN)NC(=O)[C@H](CO)NC(=O)[C@@H](N)CCCNC(=N)N)C(=O)N[C@@H](Cc1ccc(O)cc1)C(=O)N[C@@H](CCCNC(=N)N)C(=O)NCCCC[C@H](NC(=O)[C@H](CCCNC(=N)N)NC(=O)[C@H](Cc1ccc(O)cc1)NC(=O)[C@H](CC(C)C)NC(=O)[C@@H]1CCCN1C(=O)[C@H](CC(N)=O)NC(=O)[C@H](CCCCN)NC(=O)[C@H](C)NC(=O)[C@H](CCCCN)NC(=O)[C@H](CO)NC(=O)[C@@H](N)CCCNC(=N)N)C(=O)NCCCC[C@H](NC(=O)[C@H](CCCCNC(=O)[C@H](CCCNC(=N)N)NC(=O)[C@H](Cc1ccc(O)cc1)NC(=O)[C@H](CC(C)C)NC(=O)[C@@H]1CCCN1C(=O)[C@H](CC(N)=O)NC(=O)[C@H](CCCCN)NC(=O)[C@H](C)NC(=O)[C@H](CCCCN)NC(=O)[C@H](CO)NC(=O)[C@@H](N)CCCNC(=N)N)NC(=O)[C@H](CCCNC(=N)N)NC(=O)[C@H](Cc1ccc(O)cc1)NC(=O)[C@H](CC(C)C)NC(=O)[C@@H]1CCCN1C(=O)[C@H](CC(N)=O)NC(=O)[C@H](CCCCN)NC(=O)[C@H](C)NC(=O)[C@H](CCCCN)NC(=O)[C@H](CO)NC(=O)[C@@H](N)CCCNC(=N)N)C(=O)NCCCC[C@H](NC(=O)[C@H](CCCCNC(=O)[C@H](CCCCNC(=O)[C@H](CCCNC(=N)N)NC(=O)[C@H](Cc1ccc(O)cc1)NC(=O)[C@H](CC(C)C)NC(=O)[C@@H]1CCCN1C(=O)[C@H](CC(N)=O)NC(=O)[C@H](CCCCN)NC(=O)[C@H](C)NC(=O)[C@H](CCCCN)NC(=O)[C@H](CO)NC(=O)[C@@H](N)CCCNC(=N)N)NC(=O)[C@H](CCCNC(=N)N)NC(=O)[C@H](Cc1ccc(O)cc1)NC(=O)[C@H](CC(C)C)NC(=O)[C@@H]1CCCN1C(=O)[C@H](CC(N)=O)NC(=O)[C@H](CCCCN)NC(=O)[C@H](C)NC(=O)[C@H](CCCCN)NC(=O)[C@H](CO)NC(=O)[C@@H](N)CCCNC(=N)N)NC(=O)[C@H](CCCCNC(=O)[C@H](CCCNC(=N)N)NC(=O)[C@H](Cc1ccc(O)cc1)NC(=O)[C@H](CC(C)C)NC(=O)[C@@H]1CCCN1C(=O)[C@H](CC(N)=O)NC(=O)[C@H](CCCCN)NC(=O)[C@H](C)NC(=O)[C@H](CCCCN)NC(=O)[C@H](CO)NC(=O)[C@@H](N)CCCNC(=N)N)NC(=O)[C@H](CCCNC(=N)N)NC(=O)[C@H](Cc1ccc(O)cc1)NC(=O)[C@H](CC(C)C)NC(=O)[C@@H]1CCCN1C(=O)[C@H](CC(N)=O)NC(=O)[C@H](CCCCN)NC(=O)[C@H](C)NC(=O)[C@H](CCCCN)NC(=O)[C@H](CO)NC(=O)[C@@H](N)CCCNC(=N)N)C(=O)NCCC(N)=O [Dend 8-10(4)],inhibition of proliferation of HT29 colon cancer cells,[1],substantially more effective at inhibiting cell growth/proliferation
same,greater inhibition of activated phospho-ERK 1/2 than the closest test agent (TAT-G RSKAKNPLYR),"[2]; 5 μM, 1 hour, FCS stimulated HT29 cells",at least 30%
same,inhibition of activated phospho-ERK1/2,"[2]; 5 μM, 4 hours, HT29 cells, data not shown",approx. 95%
same,"ERK1/2 activation (phospho-ERK1/2 levels) upon serum (FCS) stimulation, HT29 cells",[2]; exposure to dendrimer for 4 hours prior to FCS,abolished ERK1/2 activation in a dose-dependent manner; also recorded: significantly reduced
same,"inhibition of ERK1/2 activity upon FCS stimulation, skin fibroblast cells",[3],much less inhibition
